Calls of active or inactive are those of the source. The calls are words filed in the database; no cut-off is given here.

The test system of series [1] is L5178Y. As to the kind of experiment: Antiproliferative activity against multidrug resistant mouse L5178Y cells expressing ABCB1 assessed as inhibition of cell growth incubated for 72 hrs by MTT assay. The format is functional, cell-based. On the technique in general: Tetrazolium assays rely on reduction of a dye to a coloured formazan, in cell work by metabolically active cells.

For series [2], the system named is L5178Y. As to the kind of experiment: Cytotoxicity against parental mouse L5178Y cells assessed as inhibition of cell growth incubated for 24 hrs by MTT assay. Type of series: functional, cell-based.
In series [3] the test system is L5178Y. As to the kind of experiment: Antiproliferative activity against parental mouse L5178Y cells assessed as inhibition of cell growth incubated for 72 hrs by MTT assay. Type of series: functional, cell-based.
Series [4] concerns L5178Y. Put plainly: Cytotoxicity against multidrug resistant mouse L5178Y cells expressing ABCB1 assessed as inhibition of cell growth incubated for 24 hrs by MTT assay. Type of series: functional, cell-based.
Series [5] has as its system Jurkat. Put plainly: Induction of cell cycle arrest in human Jurkat cells assessed as increase in p21 gene expression at 50 uM incubated for 24 hrs by qPCR analysis. Type of series: functional, cell-based. (In qPCR the cycle at which signal appears reflects the starting amount.)
The subject of series [6] is Jurkat. As to the kind of experiment: Synergistic induction of cell cycle arrest in human Jurkat cells assessed as increase in p53 gene expression at 50 uM incubated for 24 hrs in presence of doxorubicin at 50 nM by qPCR analysis. The format is functional, cell-based.
Series [7] relates to Jurkat. Put plainly: Induction of cell cycle arrest in human Jurkat cells assessed as increase in p53 gene expression at 50 uM incubated for 24 hrs by qPCR analysis. The format is functional, cell-based.
For series [8], the system named is Jurkat. As to the kind of experiment: Induction of cell cycle arrest in human Jurkat cells assessed as reduction in cyclin D1 gene expression at 50 uM incubated for 24 hrs by qPCR analysis. Type of series: functional, cell-based.
A short description of series [9]: Cytotoxicity against human HuT 102 cells assessed as inhibition of cell growth incubated for 72 hrs by MTS assay. The format is functional, cell-based. Particulars: HuT-102, 72 h.
Series [10] relates to Jurkat. As to the kind of experiment: Induction of cell cycle arrest in human Jurkat cells assessed as reduction in cyclin E1 gene expression at 50 uM incubated for 24 hrs by qPCR analysis. Type of series: functional, cell-based.
Series [11] relates to Jurkat. As to the kind of experiment: Synergistic induction of cell cycle arrest in human Jurkat cells assessed as increase in p21 gene expression at 50 uM incubated for 24 hrs in presence of doxorubicin at 50 nM by qPCR analysis. Type of series: functional, cell-based.
Series [12] can be described thus: Cytotoxicity against human skin fibroblast cells assessed as inhibition of cell growth incubated for 72 hrs by MTS assay. Type of series: toxicity, cell-based.
Series [13] has as its system L5178Y. As to the kind of experiment: Synergistic antiproliferative activity against multidrug resistant mouse L5178Y cells expressing ABCB1 assessed as combination index at 200 uM incubated for 72 hrs in presence of doxorubicin at 17.242 uM by checkerboard assay. Type of series: functional.
Series [14] relates to L5178Y. As to the kind of experiment: Synergistic antiproliferative activity against multidrug resistant mouse L5178Y cells expressing ABCB1 assessed as combination index at 100 uM incubated for 72 hrs in presence of doxorubicin at 17.242 uM by checkerboard assay. The format is functional.
In series [15] the test system is L5178Y. As to the kind of experiment: Synergistic antiproliferative activity against multidrug resistant mouse L5178Y cells expressing ABCB1 assessed as combination index at 150 uM incubated for 72 hrs in presence of doxorubicin at 17.242 uM by checkerboard assay. Type of series: functional.
The subject of series [16] is Jurkat. As to the kind of experiment: Synergistic induction of cell cycle arrest in human Jurkat cells assessed as reduction in cyclin D1 gene expression at 50 uM incubated for 24 hrs in presence of doxorubicin at 50 nM by qPCR analysis. The format is functional, cell-based.
The test system of series [17] is Jurkat. As to the kind of experiment: Synergistic induction of cell cycle arrest in human Jurkat cells assessed as reduction in cyclin E1 gene expression at 50 uM incubated for 24 hrs in presence of doxorubicin at 50 nM by qPCR analysis. The format is functional, cell-based.
In series [18] the test system is L5178Y. As to the kind of experiment: Synergistic antiproliferative activity against multidrug resistant mouse L5178Y cells expressing ABCB1 assessed as combination index at 50 uM incubated for 72 hrs in presence of doxorubicin at 17.242 uM by checkerboard assay. The format is functional.
In series [19] the test system is Jurkat. As to the kind of experiment: Induction of cell cycle arrest in human Jurkat cells assessed as increase in p53 transcription at 50 uM incubated for 24 hrs by qPCR analysis. The format is functional, cell-based.
Series [20] deals with Jurkat. Put plainly: Induction of cell cycle arrest in human Jurkat cells assessed as increase in p21 transcription at 50 uM incubated for 24 hrs by qPCR analysis. The format is functional, cell-based.

With `CN1CCN(c2nc(N)nc(CCSc3ccccc3)n2)CC1`, the IC50 (as a rule, the concentration that gives 50% inhibition) in series [1] stood at 33.8 µM; in series [2], 60.8 µM; in series [3] it was 54.5 µM; in [4], 67 µM.

As for `CCC([Se]Cc1ccccc1)c1nc(N)nc(N2CCN(C)CC2)n1` (stereo unspecified), the outcome in series [5], in [6], in series [7], in series [8], in series [10] and in series [11] was Active. The half-maximal inhibitory concentration (IC50) in series [1] worked out at 11.8 µM; in series [2], 8.66 µM; in series [3] it was 10.7 µM; in series [9] it was 44.3 µM; in series [4], 25.3 µM. Further, the IC50 at 72 h in series [12] is > 100 µM.

In the case of `COc1cccc2c1C(=O)c1c(O)c3c(c(O)c1C2=O)C[C@@](O)(C(=O)CO)C[C@@H]3O[C@H]1C[C@H](N)[C@H](O)[C@H](C)O1` [DOXORUBICIN], the IC50 in series [1] came to 1.75 µM; in [2], 0.7 µM; in series [3] it was 0.28 µM; in [4], 2.14 µM.

On to `CN1CCN(c2nc(N)nc(C(C)(C)Sc3ccc4ccccc4c3)n2)CC1`, for which the IC50 came to 38.5 µM in series [1], 24.8 µM in [2], 26.4 µM in [3] and 29 µM in series [4].

With `CN1CCN(c2nc(N)nc(CCC[Se]Cc3ccccc3)n2)CC1`, the IC50 was 38.6 µM in series [1], 32 µM in [2], 30.8 µM in series [3] and 57.4 µM in [4].

For the compound `CN1CCN(c2nc(N)nc(CSCc3ccccc3)n2)CC1`, the IC50 in series [1] is 37.2 µM; in [2], > 100 µM; in series [3] it was 57.2 µM; in series [4], > 100 µM.

`CN1CCN(c2nc(N)nc(CCSCc3ccccc3)n2)CC1.Cl`: the IC50 in [1] came to 32.2 µM; in series [2], 82.4 µM; in series [3] it was 38.6 µM; in series [4], 70.9 µM. Moreover, the CI in [13] was found to be 0.323.

In the case of `CCC(Sc1ccccc1)c1nc(N)nc(N2CCN(C)CC2)n1.Cl` (stereo unspecified), the IC50 was 47 µM in series [1], 54.4 µM in series [2], 58 µM in series [3] and 81.5 µM in series [4]. The CI in series [13] was 0.127.

In the case of `CN1CCN(c2nc(N)nc(CSc3ccc4ccccc4c3)n2)CC1.Cl`, the IC50 in [1] is 13.5 µM; in [2] it was 27.1 µM; in [3], 19 µM; in [4], 36.6 µM. The CI in series [14] is listed as 0.415.

In the case of `CCCCC(SCc1ccccc1)c1nc(N)nc(N2CCN(C)CC2)n1` (stereo unspecified), the IC50 in [1] was 28.1 µM; in series [2], 19.7 µM; in series [3], 25.8 µM; in series [4], 30.6 µM.

With `CCC(SCc1ccccc1)c1nc(N)nc(N2CCN(C)CC2)n1` (stereo unspecified), the IC50 in series [1] was 67.3 µM; in series [2], 59.2 µM; in series [3], 83 µM; in [4], > 100 µM.

For `CCCCC(Sc1ccc2ccccc2c1)c1nc(N)nc(N2CCN(C)CC2)n1` (stereo unspecified), the 50% inhibitory concentration (IC50) in [1] was found to be 35.5 µM; in [2], 23.2 µM; in [3] it was 36.4 µM; in series [4], 45.2 µM.

In the case of `CN1CCN(c2nc(N)nc(C(C)(C)Sc3cccc4ccccc34)n2)CC1`, the IC50 in series [1] was 24.7 µM; in series [2], 14.8 µM; in series [3] it was 19.9 µM; in series [4], 23.4 µM.

For the compound `CN1CCN(c2nc(N)nc(CCCSCc3ccccc3)n2)CC1`, the 50% inhibitory concentration (IC50) in [1] worked out at 51.5 µM; in series [2], 27.7 µM; in [3], 38.8 µM; in [4], 61.3 µM.

Consider `CCCC(SCc1ccccc1)c1nc(N)nc(N2CCN(C)CC2)n1.Cl` (stereo unspecified), for which, in series [15], the CI is recorded as 0.142. Besides, the IC50 in series [1] amounted to 23.5 µM; in series [2], 36 µM; in series [3], 24.2 µM; in series [4], 54.6 µM.

On to `CN1CCN(c2nc(N)nc(CCC[Se]c3ccccc3)n2)CC1.Cl`, for which the IC50 in series [1] worked out at 11.6 µM; in [2], 33.4 µM; in [3], 13.3 µM; in series [9], 62 µM; in series [4] it was 42.2 µM. In addition, the CI in [14] came to 0.309. The result in series [16], in [8], in series [10] and in series [17] was Active. Moreover, the IC50 at 72 h in series [12] was > 100 µM.

With `CC(Sc1ccc2ccccc2c1)c1nc(N)nc(N2CCN(C)CC2)n1` (stereo unspecified), the IC50 in series [1] was 18.6 µM; in series [2] it was 18.4 µM; in series [3] it was 21.3 µM; in series [4], 28.1 µM.

Take `CC(SCc1ccccc1)c1nc(N)nc(N2CCN(C)CC2)n1` (stereo unspecified): the 50% inhibitory concentration (IC50) in series [1] is 92.4 µM; in series [2] it was 91.8 µM; in [3] it was > 100 µM; in [4], > 100 µM.

On to `CCC(Sc1cccc2ccccc12)c1nc(N)nc(N2CCN(C)CC2)n1` (stereo unspecified), for which the half-inhibitory concentration (IC50) in [1] is 31.1 µM; in series [2], 22.6 µM; in series [3], 28.2 µM; in series [4], 30.3 µM.

For `CC(Sc1cccc2ccccc12)c1nc(N)nc(N2CCN(C)CC2)n1` (stereo unspecified), the IC50 was found to be 32.8 µM in series [1], 15.5 µM in series [2], 23.3 µM in series [3] and 32.4 µM in series [4].

`CCC(Sc1ccc2ccccc2c1)c1nc(N)nc(N2CCN(C)CC2)n1` (stereo unspecified): the IC50 stood at 27.5 µM in [1], 17.8 µM in series [2], 21.2 µM in [3] and 30.4 µM in series [4].

Turning to `CCCCC(Sc1ccccc1)c1nc(N)nc(N2CCN(C)CC2)n1.Cl` (stereo unspecified), the IC50 was 17.4 µM in [1], 15.5 µM in [2], 20.6 µM in series [3] and 21.6 µM in series [4]. In [18], the CI is reported as 0.148.

With `CN1CCN(c2nc(N)nc(CCCSc3ccccc3)n2)CC1.Cl`, the CI in series [15] came to 0.199. Further, the IC50 in [1] was 28.6 µM; in [2], 30.1 µM; in series [3], 34.1 µM; in series [4], 52 µM.

As to `CC(Sc1ccccc1)c1nc(N)nc(N2CCN(C)CC2)n1` (stereo unspecified), the IC50 in [1] is 68.7 µM; in [2], > 100 µM; in series [3], > 100 µM; in series [4], > 100 µM.

With `CN1CCN(c2nc(N)nc(C[Se]Cc3ccccc3)n2)CC1`, the IC50 in [1] was 22.7 µM; in series [2], > 100 µM; in series [3], 45.6 µM; in [4] it was > 100 µM.

Turning to `CN1CCN(c2nc(N)nc(C(C)(C)Sc3ccccc3)n2)CC1.Cl`, the IC50 is 53 µM in series [1], 68.8 µM in [2], 65.2 µM in [3] and 83.9 µM in series [4]. In addition, the CI in series [13] is 0.41.

As to `CCCC(Sc1ccc2ccccc2c1)c1nc(N)nc(N2CCN(C)CC2)n1` (stereo unspecified), the half-inhibitory concentration (IC50) in series [1] was found to be 42.7 µM; in [2], 23.9 µM; in series [3], 43.3 µM; in [4], 53.2 µM.

For the compound `CCCC(Sc1ccccc1)c1nc(N)nc(N2CCN(C)CC2)n1.Cl` (stereo unspecified), the outcome in series [19], in [10], in series [17] and in series [20] was Active. Besides, the IC50 in series [1] worked out at 16.6 µM; in series [2], 15 µM; in series [3], 15.5 µM; in [9] it was 58.2 µM; in series [4] it was 21.2 µM. Besides, the CI in [18] is reported as 0.044. In addition, the outcome in series [8] was inactive. For the same compound, in series [12], the IC50 at 72 h is > 100 µM.

Consider `CN1CCN(c2nc(N)nc(CSc3ccccc3)n2)CC1`, for which the IC50 in series [1] is 79.9 µM; in [2] it was > 100 µM; in [3] it was > 100 µM; in series [4], > 100 µM.

The record behind these values is ChEMBL document CHEMBL5344405, “Seleno-vs. thioether triazine derivatives in search for new anticancer agents overcoming multidrug resistance in lymphoma” (Eur J Med Chem, 2022).
